Assay results reported in patent US7700786B2, “Pyrazole derivative, intermediate therefor, processes for producing these, and herbicide containing these as active ingredient” (Sagami Chemical Research Center, priority 2001, dated 2010).

How the values were obtained:
Type in all cases: in vivo
Amaranthus viridis [1] = test: Herbicidal efficacy test by foliar treatment after germination under upland field condition; conditions: dose 1 kg/ha, rated 1 to 5 on the 14th day after treatment; also: key: 1 shows no influence; 5 shows complete die
Text: (§1) A vat having an area of 5×10 cm^2 and a depth of 5 cm was filled with upland field soil, and seeds of Chenopodium album, Echinochloa crus-galli, Amaranthus viridis and Abutilon theophrasti were sown thereon and covered with soil by a depth of 0.5 cm. Water was sprayed as required to grow them for 14 days.

Chenopodium album [2] = test: as above; conditions: dose 1 kg/ha, rated 1 to 5 on the 14th day after treatment
Text: as §1

Echinochloa crus-galli [3] = test: as above; conditions: dose 1 kg/ha, rated 1 to 5 on the 14th day after treatment
Text: as §1

Abutilon theophrasti = test: as above; conditions: Dc: Digitaria ciliaris (table footnote; method names Abutilon theophrasti), dose 1 kg/ha, rated 1 to 5 on the 14th day after treatment
Echinochloa oryzicola = test: Herbicidal efficacy test by pre-emergence treatment under submergence condition; conditions: 15th day after treatment, ratings of 1 to 5
Text: (§3) A 1/10,000-are pot was filled with paddy field soil, and, after plowing, seeds of Echinochloa oryzicola, Cyperus difformis, Monochoria vaginalis, Scirpus juncoides, Eleocharis acicularis and other annual broadleaf weeds such as Lindernia procumbens, Rotala indica and Elatine triandra were sown. Rice (oryza sativa) seedlings (cultiver “Koshihikari”) at a 2.5-leaf stage were transplanted and kept under a submergence condition. After one day, the wettable powder or emulsifiable concentrate of the compound of the present invention, prepared according to Preparation Example, was diluted and dropped on a water surface at a predetermined dose.

Cyperus difformis = test: as above; conditions: 15th day after treatment, ratings of 1 to 5; also: key: 1 shows no influence; 5 shows complete die
Text: as §3

[4] = tested on: annual broadleaf weeds such as Lindernia procumbens, Rotala indica and Elatine triandra; test: as above; conditions: 15th day after treatment, ratings of 1 to 5
Monochoria vaginalis = test: as above; conditions: 15th day after treatment, ratings of 1 to 5; also: key: 1 shows no influence; 5 shows complete die
Scirpus juncoides = test: as above; conditions: 15th day after treatment, ratings of 1 to 5
Text: as §3

Eleocharis acicularis = test: as above; conditions: 15th day after treatment, ratings of 1 to 5; also: key: 1 shows no influence; 5 shows complete die
Text: as §3

Amaranthus viridis [5] = test: Herbicidal efficacy test by soil treatment before germination under upland field condition; conditions: dose 1 kg/ha; 21st day after treatment; ratings of 1 to 5; also: key: 1 shows no influence; 5 shows complete die
Text: (§2) A vat having an area of 5×10 cm^2 and a depth of 5 cm was filled with upland field soil, and seeds of Chenopodium album, Echinochloa crus-galli, Amaranthus viridis, Digitaria ciliaris and sweet corn (Zea mays) were sown thereon and covered with soil by a depth of 0.5 cm.

Chenopodium album [6] = test: as above; conditions: dose 1 kg/ha; 21st day after treatment; ratings of 1 to 5
Text: as §2

Digitaria ciliaris = test: as above; conditions: dose 1 kg/ha; 21st day after treatment; ratings of 1 to 5
Text: as §2

Echinochloa crus-galli [7] = test: as above; conditions: dose 1 kg/ha; 21st day after treatment; ratings of 1 to 5
Text: as §2

sweet corn (Zea mays) = test: Injury to corn, soil treatment before germination under upland field condition; conditions: dose 1 kg/ha; 21st day after treatment; ratings of 1 to 5
Text: as §2
For Herbicidal activity Ca in this document: key: 1 shows no influence; 5 shows complete die.

| Structure (SMILES) | Herbicidal activity Av (Amaranthus viridis [1]) | Herbicidal activity Ca (Chenopodium album [2]) | Herbicidal activity Ec (Echinochloa crus-galli [3]) | Herbicidal activity Dc (Abutilon theophrasti) | Herbicidal efficacy Eo (Echinochloa oryzicola; dose 0.5 kg/ha) | Herbicidal efficacy Eo (Echinochloa oryzicola; dose 1 kg/ha) | Herbicidal efficacy Cd (Cyperus difformis; dose 0.5 kg/ha) | Herbicidal efficacy Cd (Cyperus difformis; dose 1 kg/ha) | Herbicidal efficacy Blw ([4]; dose 0.5 kg/ha) | Herbicidal efficacy Blw ([4]; dose 1 kg/ha) | Herbicidal efficacy Mv (Monochoria vaginalis; dose 0.5 kg/ha) | Herbicidal efficacy Mv (Monochoria vaginalis; dose 1 kg/ha) | Herbicidal efficacy Sj (Scirpus juncoides; dose 0.5 kg/ha) | Herbicidal efficacy Sj (Scirpus juncoides; dose 1 kg/ha) | Herbicidal efficacy Ea (Eleocharis acicularis; dose 0.5 kg/ha) | Herbicidal efficacy Ea (Eleocharis acicularis; dose 1 kg/ha) | further results |
| --- | --- | --- | --- | --- | --- | --- | --- | --- | --- | --- | --- | --- | --- | --- | --- | --- | --- |
| CCC(C)NC(=O)n1nc(Oc2ncc(C(F)(F)F)cc2Cl)cc1C (stereo not drawn) [Compound 4-30, N-s-butyl-3-(3-chloro-5-trifluoromethylpyridin-2-yloxy)-5-methylpyrazole-1-carboxamide] | 5 | 5 | 5 | 5 |  |  |  |  |  |  |  |  |  |  |  |  |  |
| CCCNC(=O)n1nc(Oc2ccc(C(F)(F)F)cc2[N+](=O)[O-])cc1C [Compound 3-82] | 5 | 5 | 3.8 | 5 |  |  |  |  |  |  |  |  |  |  |  |  |  |
| CCNC(=O)n1nc(Oc2ccc(C(F)(F)F)cc2[N+](=O)[O-])cc1C [Compound 3-67] | 5 | 5 | 4.9 | 5 |  |  |  |  |  |  |  |  |  |  |  |  |  |
| CCONC(=O)n1nc(Oc2c(Cl)cc(C(F)(F)F)cc2Cl)cc1C [Compound 3-158] | 5 | 5 | 5 | 5 | 5 | 5 | 5 | 5 | 5 | 5 | 5 | 5 | 5 | 5 | 5 | 5 |  |
| Cc1cc(Oc2c(Cl)cc(C(F)(F)F)cc2Cl)nn1C(=O)NC(C)C [Compound 3-89] | 5 | 5 | 5 | 5 | 5 | 5 | 5 | 5 | 5 | 5 | 5 | 5 | 5 | 5 | 5 | 5 |  |
| CCNC(=O)n1nc(Oc2c(Cl)cc(C(F)(F)F)cc2Cl)cc1C [Compound 3-44] | 5 | 5 | 5 | 5 | 5 | 5 | 5 | 5 | 5 | 5 | 5 | 5 | 5 | 5 | 5 | 5 | Herbicidal activity Av (Amaranthus viridis [5]): 5; Herbicidal activity Ca (Chenopodium album [6]): 5; Herbicidal activity Dc (Digitaria ciliaris): 5; Herbicidal activity Ec (Echinochloa crus-galli [7]): 5; Injury Zm (sweet corn (Zea mays)): 3 |
| C=CCNC(=O)n1nc(Oc2c(Cl)cc(C(F)(F)F)cc2Cl)cc1C [Compound 3-130] | 5 | 5 | 5 | 5 | 5 | 5 | 5 | 5 | 5 | 5 | 5 | 5 | 5 | 5 | 5 | 5 |  |
| CNC(=O)n1nc(Oc2c(Cl)cc(C(F)(F)F)cc2Cl)cc1C [Compound 3-14] | 5 | 5 | 5 | 5 | 5 | 5 | 5 | 5 | 5 | 5 | 5 | 5 | 5 | 5 | 5 | 5 | Herbicidal activity Av (Amaranthus viridis [5]): 5; Herbicidal activity Ca (Chenopodium album [6]): 5; Herbicidal activity Dc (Digitaria ciliaris): 5; Herbicidal activity Ec (Echinochloa crus-galli [7]): 4.9 |
| CNC(=S)n1nc(Oc2c(Cl)cc(C(F)(F)F)cc2Cl)cc1C [Compound 3-15] | 5 | 5 | 5 | 5 | 5 | 5 | 5 | 5 | 5 | 5 | 5 | 5 | 5 | 5 | 5 | 5 |  |
